Measurements published in patent publication US20100305098A1, “METHODS OF USE” (priority 2007, published 2010).

Key:
activated human MoDCs = test: Human MoDC IL-23 secretion assay; type: cell-based; conditions: PGE1-OH (10 nM); LPS/R-848 activated human MoDCs, 24 h; read-out: IC50 (Ave. of two experiments), inhibiting PGE1-OH enhanced IL-23 production
Experimental: In vitro human monocytes derived DC assay. CD14^+ cells were purified from human PBMCs using Miltenyi CD14 microbeads, and differentiated with human GM-CSF (500 U/ml)+human IL-4 (500 U/ml) in complete RPMI medium containing 10% charcoal-stripped FBS for […]. The unattached imDCs were stimulated with LPS (10 ng/ml)+R-848 (2.5 μg/ml) with or without addition of EP4 agonist/antagonist or anti-PGE2 Ab at the concentrations indicated for 24 h. IL-23 in culture supernatants were measured by ELISA (eBioscience).
Human CD14^+ monocytes were differentiated into imDCs with GM-CSF plus IL-4 for 7 days and re-stimulated with LPS/R-848 in the presence or absence of exogenous PGE1-OH (1-100 nM) and with and without ER-819762 (FIG. 13) or ER-819924 or anti-PGE2 Ab (FIG. 14) for 24 h. IL-23 secretion in culture supernatants was measured by ELISA. […] IC50 values of representative compounds in human MoDC IL-23 secretion assay.

human T-bet = human T-bet (Homo sapiens, UniProt Q9UL17); test: HEKT-bet-luc assay (normalized); type: cell-based; conditions: reference compound used for normalization; read-out: established potency of the reference compound (IC50)
Sequence of human T-bet (Q9UL17 whole entry): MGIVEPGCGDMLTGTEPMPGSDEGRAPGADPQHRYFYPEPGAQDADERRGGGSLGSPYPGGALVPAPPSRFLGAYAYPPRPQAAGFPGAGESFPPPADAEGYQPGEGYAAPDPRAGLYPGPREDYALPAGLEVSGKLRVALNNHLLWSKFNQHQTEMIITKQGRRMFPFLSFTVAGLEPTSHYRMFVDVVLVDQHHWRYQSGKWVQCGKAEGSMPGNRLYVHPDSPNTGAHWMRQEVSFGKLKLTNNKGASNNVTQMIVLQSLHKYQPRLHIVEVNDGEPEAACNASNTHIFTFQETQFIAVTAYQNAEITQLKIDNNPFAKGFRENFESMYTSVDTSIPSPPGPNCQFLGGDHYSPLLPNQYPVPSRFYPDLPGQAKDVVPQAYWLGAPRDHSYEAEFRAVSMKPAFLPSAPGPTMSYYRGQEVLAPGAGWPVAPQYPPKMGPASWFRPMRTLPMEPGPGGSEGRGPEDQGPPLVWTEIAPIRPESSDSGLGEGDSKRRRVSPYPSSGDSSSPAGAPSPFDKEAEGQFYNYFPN
Experimental: HEKT-bet-luc assay: This assay measures a T-bet dependent reporter (luciferase) activity in engineered HEK cells that express a human T-bet and a T-box responsive element driving luciferase reporter. HEKT-bet cells were plated at 2×10^4/well in 96-well plate and compound was added into cell culture for 24 hours. Luciferase activity was measured by adding 50 μl of Steady-Glo reagent (Promega) and samples were read in Victor V reader (PerkinElmer). The activity of compound was determined by comparing compound treated samples to non-compound treated vehicle controls. The IC50 values were calculated utilizing a maximum value corresponding to the amount of luciferase in the absence of a test compound and a minimum value corresponding to a test compound value obtained at maximum inhibition.
Determination of Normalized HEKT-bet IC50 values: Compounds were assayed in microtiter plates. […] The un-normalized IC50 value for a particular compound was divided by the IC50 value determined for the reference compound in the same microtiter plate to provide a relative potency value. […]
Exemplary compounds of the present invention were assayed according to the methods set forth above in the HEKT-bet-luc assay described above. Table 2 below set forth exemplary compounds of the present invention having an IC50 of up to the indicated amount (μM) as determined by the normalized HEKT-bet-luc assay described above.

[1] = test system: activated mouse CD4+ T cells; test: IL-17 production in activated mouse CD4+ T cells; type: cell-based; conditions: anti-CD3/anti-CD28 stimulated CD4+ T cells
Experimental: To study the effect of EP4 agonist/antagonist on IL-17 production, total CD4^+ T cells from C57BL/6 mice were activated with plate-bound anti-CD3 (2 μg/ml) plus soluble anti-CD 28 (2 μg/ml) in the presence or absence of IL-23 (10 ng/ml) or EP4 agonist/antagonists at indicated concentrations for 3-5 days. Culture supernatants were analyzed by IL-17 ELISA, and cell pellets were used to measure cell proliferation with CellTite-Glo reagents.
To investigate whether EP4 also plays a role in a Th17 response, the effect of EP4 activation by PGE2 or EP4 agonist on IL-17 production in activated mouse CD4^+ T cells was examined. Total CD4^+ T cells were stimulated with anti-CD3/anti-CD28 with and without IL-23 and in the presence or absence of PGE2 or EP4 agonist PGE1-OH (0.1 nM to 1000 nM) for 3-5 days. IL-17 in culture supernatants was measured by ELISA and cell proliferation was measured by CellTiter-glo.

EP4 = target: T1, EP4 (Homo sapiens, UniProt P35408); test: PGE2 induced CRE-PLAP reporter assay in SE302 cells; type: cell-based; conditions: tested at 0.3 nM to 10 μM
T1 construct: SE302 cells that express endogenous EP4; endogenous in cells; host or cells: SE302 cells
T1 sequence (P35408 whole entry): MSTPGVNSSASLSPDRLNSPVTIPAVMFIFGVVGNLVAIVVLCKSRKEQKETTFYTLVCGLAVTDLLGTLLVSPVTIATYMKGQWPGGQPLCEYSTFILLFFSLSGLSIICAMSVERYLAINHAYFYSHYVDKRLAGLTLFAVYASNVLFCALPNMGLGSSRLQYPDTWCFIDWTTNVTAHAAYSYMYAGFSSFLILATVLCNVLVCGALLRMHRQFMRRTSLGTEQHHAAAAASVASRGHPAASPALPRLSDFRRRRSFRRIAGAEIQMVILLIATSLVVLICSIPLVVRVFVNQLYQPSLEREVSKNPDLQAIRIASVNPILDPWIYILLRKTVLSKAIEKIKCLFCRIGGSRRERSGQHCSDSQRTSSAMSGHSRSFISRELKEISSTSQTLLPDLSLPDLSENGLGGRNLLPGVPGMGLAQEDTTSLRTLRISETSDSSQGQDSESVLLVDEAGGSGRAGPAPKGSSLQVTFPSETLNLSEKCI
Experimental: CRE-PLAP reporter assay. SE302 cells that express endogenous EP4 were stimulated with PGE2 in the presence or absence of ER-819762 for overnight, and PLAP activity was measured.

Naive CD4 T cells = test: Mouse Th1 differentiation assay; type: cell-based; conditions: for effect on Th1 differentiation: added during Th1 differentiation, 3 days
Experimental: In vitro T cell assays. Naive CD4^+ T cells were purified from spleens of either BALB/c or D011.10 mice by Robosep as described by the manufacture. For BALB/c mice, 1×10^5 of CD4^+ T cells were cultured for 3-6 days in a 96-well plate in 100 μl of complete RPMI medium (Cellgro) containing either 10% of regular fetal bovine serum (Hyclone) or charcoal stripped FBS (Hyclone) (when exogenous PGE2 or EP4 agonists were added to the culture) under either neutral condition (1 μg/ml of plate-bound anti-CD3+1 μg/ml of soluble anti-CD28+10 ng/ml of mouse IL-2) or under Th1 promoting condition (neutral+5 ng/ml of mouse IL-12+10 μg/ml of anti-IL-4) or under Th2 differentiation condition (neutral+10 ng/ml of mouse IL-4+10 μg/ml of […]). IFNγ or IL-4 in culture supernatants were detected by ELISA. Cell pellets were used to measure cell proliferation with either Alamar blue or CellTiter-Glo reagents according to the instructions of the manufacture. For D011.10 mice, mitomycin C treated splenocytes from BALB/c mice were used as antigen presenting cells and co-cultured with naive CD4^+ T cells in 5 to 1 ratio (5×10^5 of mitomycin C treated splenocytes in 100 μl medium+1×10^5 CD^4 T cells in 100 μl medium) and stimulated with OVA peptide (0.3 ng/ml) under either neutral, Th1 or Th2 promoting conditions as described above. EP4 agonists, antagonists or anti-PGE2 Ab were added during Th cell differentiation.
To investigate whether EP4 activation plays a role in Th1 differentiation, the effect of PGE2 or EP4 agonist and anti-PGE2 antibody was examined in a mouse Th1 differentiation assay. Naive CD4 T cells were differentiated with Th1 promoting agents for 3 days. Th1 cytokine IFNγ in culture supernatants was measured by ELISA. Cell proliferation was measured by Alamar blue assay. PGE2 or EP4 agonist PGE1-OH was added during Th1 differentiation.

CAIA mouse = test: Suppression of arthritis development in CAIA; type: in vivo; conditions: once daily PO day 0 to day 7
Experimental: Suppression of arthritis development in CAIA. BALB/c mice were injected i.v. with 1 mg of anti-type II collagen antibody at day 0, and 3 days later 25 μg of LPS was injected i.p. with active compound and methotrexate (MTX) was given once daily PO from day 0 to day 7. Arthritis score and body weight was monitored over the course of study.

`CCN1C(=O)N2Cc3cc(OC)cc(OC)c3[C@@H](C)C=C2C12CCN(Cc1nc(C)oc1C)CC2` [ER-811283-01] gave an IC50 (activated human MoDCs) of 57 nM.

In the case of `COCCN1C(=O)N2Cc3cc(OC)cc(OC)c3C(C)(C)C=C2C12CCN(Cc1cc(OC)cc(OC)c1)CC2` [ER-819544], the IC50 (human T-bet) is reported as 35 nM.

With `CCN1C(=O)N2Cc3cc(OC)cc(OC)c3[C@@H](C)C=C2C12CCN(Cc1cc(C)cc(C)c1)CC2` [ER-819762-01] the “effect on PGE2/PGE1-OH enhanced IL-17 production” value [1] was “suppressed the activity”.

For `CCN1C(=O)N2Cc3cc(OC)cc(OC)c3[C@@H](C)C=C2C12CCN(Cc1cc(C)cc(C)c1)CC2` [ER-819762], the IC50 (activated human MoDCs) was 40 to 200 nM, the “inhibition of PGE2 induced CRE-PLAP reporter activity” value (EP4) was “potent inhibitory activities” and the “effect on PGE2/PGE1-OH enhanced IL-17 production” value [1] was “suppresses”. The “added activity to anti-PGE2 Ab in Th1 differentiation” value (Naive CD4 T cells; combination with anti-PGE2 Ab) was “no added activity”.

`CCN1C(=O)N2Cc3cc(OC)cc(OC)c3[C@@H](C)C=C2C12CCN(Cc1c[nH]nc1C)CC2` [ER-819826-01] gave an IC50 (activated human MoDCs) of 185 nM.

In the case of `CCN1C(=O)N2Cc3cc(OC)cc(OC)c3[C@@H](C)C=C2C12CCN(Cc1cccn1C)CC2` [ER-819924], the IC50 (activated human MoDCs) is reported as under 200 nM and the “inhibition of PGE2 induced CRE-PLAP reporter activity” value (EP4) is reported as “potent inhibitory activities”.

With `CCCCC[C@H](O)/C=C/[C@H]1[C@H](O)CC(=O)[C@@H]1CCCCCCCO` [PGE1-OH, PGE1-alcohol] the “effect on Th1 differentiation” value (Naive CD4 T cells) was “enhanced Th1 differentiation”.

In the case of `CCCCC[C@H](O)/C=C/[C@H]1[C@H](O)CC(=O)[C@@H]1C/C=C\CCCC(=O)O` [PGE2, prostaglandin E2], the “effect on Th1 differentiation” value (Naive CD4 T cells) is reported as “enhanced Th1 differentiation”.

In the case of `CN(Cc1cnc2nc(N)nc(N)c2n1)c1ccc(C(=O)N[C@@H](CCC(=O)O)C(=O)O)cc1` [methotrexate], the “activity in CAIA model” value (CAIA mouse) is reported as “not particularly active”.
